Consider 20 compounds from ChEMBL document CHEMBL1641464, “1-(Arylsulfonyl)-2,3-dihydro-1H-quinolin-4-one derivatives as 5-HT(6) serotonin receptor ligands” (Bioorg Med Chem Lett, 2011).

Series [1] deals with T1, 5-hydroxytryptamine receptor 6 (Homo sapiens, UniProt P50406). Kind of series: Displacement of [3H]LSD from human 5HT6 receptor expressed in HEK293 cells. The format is cell-based. Background: Loss of bound radioactivity is the signal in a displacement assay; it reports binding, not function.
T1 sequence (P50406 whole entry): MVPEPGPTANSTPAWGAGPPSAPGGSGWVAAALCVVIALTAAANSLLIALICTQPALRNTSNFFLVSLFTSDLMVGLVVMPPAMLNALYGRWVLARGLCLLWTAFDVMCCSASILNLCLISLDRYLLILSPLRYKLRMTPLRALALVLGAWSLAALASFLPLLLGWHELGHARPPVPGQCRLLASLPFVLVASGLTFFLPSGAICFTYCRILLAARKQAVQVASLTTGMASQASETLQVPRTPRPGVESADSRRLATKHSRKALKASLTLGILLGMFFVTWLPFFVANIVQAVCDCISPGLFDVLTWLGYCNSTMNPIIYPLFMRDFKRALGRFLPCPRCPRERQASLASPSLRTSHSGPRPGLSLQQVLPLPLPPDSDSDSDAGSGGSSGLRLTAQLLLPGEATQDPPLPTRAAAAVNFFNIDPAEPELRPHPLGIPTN
Series [2] concerns the target T2, 5-hydroxytryptamine receptor 1A (Homo sapiens, UniProt P08908).
T2 sequence (P08908 whole entry): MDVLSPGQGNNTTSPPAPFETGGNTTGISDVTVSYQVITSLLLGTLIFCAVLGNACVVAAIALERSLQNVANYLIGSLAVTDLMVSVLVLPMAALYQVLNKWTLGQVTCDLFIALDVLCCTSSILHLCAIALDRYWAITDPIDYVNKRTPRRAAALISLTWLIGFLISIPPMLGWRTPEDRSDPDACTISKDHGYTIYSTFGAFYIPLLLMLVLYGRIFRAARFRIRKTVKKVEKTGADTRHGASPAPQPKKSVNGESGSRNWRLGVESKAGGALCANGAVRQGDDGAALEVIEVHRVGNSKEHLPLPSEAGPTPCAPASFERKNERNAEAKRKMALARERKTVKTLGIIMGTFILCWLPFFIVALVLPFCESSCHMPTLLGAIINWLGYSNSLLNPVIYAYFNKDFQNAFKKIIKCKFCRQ
Kind of series: Displacement of [3H]8-OH-DPAT from human 5HT1A receptor expressed in cells. The format is cell-based.

Series [3] deals with 5-hydroxytryptamine receptor 2A (Homo sapiens, UniProt P28223). Kind of series: Displacement of [3H]ketanserin from human 5HT2A receptor expressed in cells. The format is cell-based.
Chain of 5-hydroxytryptamine receptor 2A (P28223 whole entry): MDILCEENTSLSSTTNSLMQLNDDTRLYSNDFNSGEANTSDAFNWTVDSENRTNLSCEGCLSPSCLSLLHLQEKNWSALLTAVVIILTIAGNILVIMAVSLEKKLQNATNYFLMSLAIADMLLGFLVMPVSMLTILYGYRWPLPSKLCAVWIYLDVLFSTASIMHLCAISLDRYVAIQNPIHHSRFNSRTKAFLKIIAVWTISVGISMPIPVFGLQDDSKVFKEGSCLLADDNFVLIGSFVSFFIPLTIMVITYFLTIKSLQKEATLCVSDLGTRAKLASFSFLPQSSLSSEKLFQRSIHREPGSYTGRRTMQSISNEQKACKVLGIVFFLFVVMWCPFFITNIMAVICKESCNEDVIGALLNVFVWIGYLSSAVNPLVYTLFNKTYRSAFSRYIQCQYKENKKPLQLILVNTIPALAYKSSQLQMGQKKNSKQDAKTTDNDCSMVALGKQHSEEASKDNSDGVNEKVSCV
Series [4] addresses T3, 5-hydroxytryptamine receptor 2C (Homo sapiens, UniProt P28335).
T3 sequence (P28335 whole entry): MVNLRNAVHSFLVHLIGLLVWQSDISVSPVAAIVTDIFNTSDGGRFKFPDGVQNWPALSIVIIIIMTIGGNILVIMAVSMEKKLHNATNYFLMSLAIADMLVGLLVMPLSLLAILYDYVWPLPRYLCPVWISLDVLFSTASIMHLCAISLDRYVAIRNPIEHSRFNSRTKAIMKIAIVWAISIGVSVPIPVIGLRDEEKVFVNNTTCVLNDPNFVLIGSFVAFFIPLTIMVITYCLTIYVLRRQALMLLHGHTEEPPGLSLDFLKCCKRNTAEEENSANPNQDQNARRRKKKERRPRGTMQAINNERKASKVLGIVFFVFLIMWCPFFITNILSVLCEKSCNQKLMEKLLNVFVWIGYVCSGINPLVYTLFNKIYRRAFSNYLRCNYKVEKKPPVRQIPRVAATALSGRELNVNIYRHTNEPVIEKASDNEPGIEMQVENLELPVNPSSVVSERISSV
Briefly: Displacement of [3H]mesulergine from human 5HT2C receptor expressed in cells. The format is cell-based.

For series [5], the target named is 5-hydroxytryptamine receptor 7 (Homo sapiens, UniProt P34969). Briefly: Displacement of [3H]LSD from human 5HT7 receptor expressed in cells. The format is cell-based.
Chain of 5-hydroxytryptamine receptor 7 (P34969 whole entry): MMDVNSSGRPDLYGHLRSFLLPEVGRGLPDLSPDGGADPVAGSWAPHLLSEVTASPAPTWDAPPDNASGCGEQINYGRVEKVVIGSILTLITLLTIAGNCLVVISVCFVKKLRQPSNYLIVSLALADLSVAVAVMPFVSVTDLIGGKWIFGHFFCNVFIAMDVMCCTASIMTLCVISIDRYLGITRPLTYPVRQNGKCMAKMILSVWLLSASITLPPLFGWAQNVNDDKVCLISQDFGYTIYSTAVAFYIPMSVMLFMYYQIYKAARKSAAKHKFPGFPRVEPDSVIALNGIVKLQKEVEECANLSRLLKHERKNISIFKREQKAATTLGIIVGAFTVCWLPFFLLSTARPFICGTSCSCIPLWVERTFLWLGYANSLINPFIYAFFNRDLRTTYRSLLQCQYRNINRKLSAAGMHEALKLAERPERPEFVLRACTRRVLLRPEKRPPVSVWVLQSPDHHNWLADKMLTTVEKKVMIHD
In series [6] the target is D(2) dopamine receptor (Homo sapiens, UniProt P14416). Briefly: Displacement of [3H]spiperone from human dopamine D2 receptor expressed in cells. The format is cell-based.
Chain of D(2) dopamine receptor (P14416 whole entry): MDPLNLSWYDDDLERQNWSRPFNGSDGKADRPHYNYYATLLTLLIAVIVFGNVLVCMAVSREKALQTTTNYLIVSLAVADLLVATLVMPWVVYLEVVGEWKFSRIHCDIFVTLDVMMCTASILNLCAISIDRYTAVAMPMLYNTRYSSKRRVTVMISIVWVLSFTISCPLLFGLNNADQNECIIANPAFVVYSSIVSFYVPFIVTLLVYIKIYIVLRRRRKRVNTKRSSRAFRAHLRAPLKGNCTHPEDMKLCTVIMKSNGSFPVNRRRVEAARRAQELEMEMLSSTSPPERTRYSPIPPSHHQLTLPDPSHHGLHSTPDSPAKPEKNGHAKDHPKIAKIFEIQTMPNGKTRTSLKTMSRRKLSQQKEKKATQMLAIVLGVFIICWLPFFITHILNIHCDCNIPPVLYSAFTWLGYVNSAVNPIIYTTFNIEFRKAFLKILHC
For series [7], the target named is D(3) dopamine receptor (Homo sapiens, UniProt P35462). Kind of series: Displacement of [3H]spiperone from human dopamine D3 receptor expressed in cells. The format is cell-based.
Chain of D(3) dopamine receptor (P35462 whole entry): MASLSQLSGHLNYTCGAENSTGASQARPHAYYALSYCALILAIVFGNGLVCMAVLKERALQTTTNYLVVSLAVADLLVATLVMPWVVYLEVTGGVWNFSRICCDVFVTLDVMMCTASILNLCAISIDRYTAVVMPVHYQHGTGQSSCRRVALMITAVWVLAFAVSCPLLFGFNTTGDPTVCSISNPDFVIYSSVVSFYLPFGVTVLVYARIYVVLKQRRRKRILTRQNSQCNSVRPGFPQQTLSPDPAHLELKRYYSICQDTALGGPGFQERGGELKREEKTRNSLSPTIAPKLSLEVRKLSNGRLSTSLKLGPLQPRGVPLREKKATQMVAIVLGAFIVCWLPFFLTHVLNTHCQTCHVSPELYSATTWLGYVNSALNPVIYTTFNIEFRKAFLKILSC
Series [8] concerns the target T4, D(4) dopamine receptor (Homo sapiens, UniProt P21917).
T4 sequence (P21917 whole entry): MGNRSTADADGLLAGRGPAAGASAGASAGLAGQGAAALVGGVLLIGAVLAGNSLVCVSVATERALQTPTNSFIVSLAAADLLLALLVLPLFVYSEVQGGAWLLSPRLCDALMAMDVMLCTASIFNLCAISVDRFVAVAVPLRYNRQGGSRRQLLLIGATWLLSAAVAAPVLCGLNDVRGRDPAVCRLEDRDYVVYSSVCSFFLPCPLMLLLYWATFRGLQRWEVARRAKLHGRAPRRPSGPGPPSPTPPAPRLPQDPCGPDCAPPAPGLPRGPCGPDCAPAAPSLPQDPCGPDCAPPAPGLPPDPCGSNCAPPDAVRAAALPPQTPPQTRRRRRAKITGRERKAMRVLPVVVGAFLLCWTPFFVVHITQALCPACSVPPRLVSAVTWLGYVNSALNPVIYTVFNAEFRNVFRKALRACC
Briefly: Displacement of [3H]spiperone from human dopamine D4 receptor expressed in cells. The format is cell-based.

Series [9] can be described thus: Lipophilicity, log D of the compound. As to conditions: octanol/water. The format is physicochemical.
Series [10] deals with T1, 5-hydroxytryptamine receptor 6. Briefly: Antagonist activity at human 5HT6 receptor expressed in HeLa cells assessed as inhibition of 5-HT-stimulated cAMP accumulation. The format is functional, cell-based. A general note: Changes in cAMP serve as a functional read-out for many G protein-coupled receptors.
Series [11] has the same target. Kind of series: Binding affinity to 5HT6 receptor.

SMILES strings stand for the structures. Where only a bound is given, the exact number is not on record here.

For orientation: IC50 means the concentration that inhibits the measured activity by half. In series [1], `CN1CCN(c2cc(Cl)cc3c2C(=O)CCN3S(=O)(=O)c2ccc3ccccc3c2)CC1` yielded an IC50 of 47 nM.

Take `CN1CCN(c2cccc3c2C(=O)CCN3S(=O)(=O)c2ccc3ccccc3c2)CC1`: the IC50 is 61 nM in series [1]; 333 nM in series [2]; 760 nM in series [3]; 438 nM in [4]; 620 nM in [5]; above 10000 nM in series [6]. Further, the half-maximal inhibitory concentration (IC50) in [7] was 2920 nM; in [8] it was 1790 nM.

In turn, `COc1cc2c(cc1N1CCN(C)CC1)N(S(=O)(=O)c1ccc3ccccc3c1)CCC2=O` registered an IC50 in [1] of 165 nM.

The term logD denotes lipophilicity at a set pH, counting ionised and neutral species. High values mean a more lipophilic compound, low ones a more hydrophilic compound. As for `CC1CC(=O)c2c(N3CCN(C)CC3)cccc2N1S(=O)(=O)c1ccc2ccccc2c1` (stereo not given), the IC50 in [1] was 8 nM; in series [2], 1210 nM; in series [3], 48 nM; in series [4], 30 nM; in [5], 2010 nM; in [6], above 10000 nM. Further, the IC50 amounted to 482 nM in series [7] and 5520 nM in [8]. In series [9], this compound returned a logD of 3.6.

On to `C[C@@H]1CC(=O)c2ccc(N3CCN(C)CC3)cc2N1S(=O)(=O)c1ccc2ccccc2c1`, for which the IC50 in series [1] is 43 nM.

Take `CN1CCN(c2ccc3c(c2)N(S(=O)(=O)c2ccc4ccccc4c2)CCC3=O)CC1`: the IC50 is 26 nM in series [1]; 672 nM in [2]; 366 nM in series [3]; 5190 nM in series [4]; 143 nM in series [5]; above 10000 nM in [6]. In addition, the results for the IC50 in series [7], in [8] and in series [10] were 1300 nM, 3610 nM and 188 nM, respectively.

Take `C[C@H]1CC(=O)c2c(N3CCN(C)CC3)cccc2N1S(=O)(=O)c1ccc2ccccc2c1`: in series [1], the IC50 was 7 nM.

The compound `CN1CCN(c2cc(Br)cc3c2C(=O)CCN3S(=O)(=O)c2ccc3ccccc3c2)CC1` returned a half-inhibitory concentration (IC50) in series [1] of 58 nM.

For `CC1CC(=O)c2c(N3CCNCC3)cccc2N1S(=O)(=O)c1ccc2ccccc2c1` (stereo not given), in series [1], the IC50 was 42 nM.

Compound `Cc1ccc2c(c1N1CCN(C)CC1)C(=O)CC(C)N2S(=O)(=O)c1ccc2ccccc2c1` (stereo not given) gave an IC50 in series [1] of 15 nM.

`Cc1c(S(=O)(=O)N2CCC(=O)c3ccc(N4CCN(C)CC4)cc32)sc2ccc(Cl)cc12` had an IC50 in [1] of 419 nM.

One may read the Ki as a dissociation constant, usually derived from enzyme kinetics or from competition with a known ligand. Higher therefore signals a looser hold on the target. As to `CSc1nn2c(N3CCNCC3)c3c(nc2c1S(=O)(=O)c1ccccc1)CCC3`, the Ki in [11] is 2.51 nM.

`CC1CC(=O)c2ccc(N3CCN(C)CC3)cc2N1S(=O)(=O)c1ccc2ccccc2c1` (stereo not given): the IC50 in [1] is 28 nM; in [2], 1600 nM; in [3], 1460 nM; in [4] it was 558 nM; in series [5], above 10000 nM; in series [6], 136 nM. In addition, the IC50 in series [7] was 1520 nM; in [8], above 10000 nM. The compound also yielded a logD in series [9] of 3.2.

The compound `Cc1ccc(S(=O)(=O)N2CCC(=O)c3c(N4CCN(C)CC4)cccc32)cc1` came in with an IC50 in series [1] of 129 nM.

The compound `COc1ccc(NS(=O)(=O)c2sc3ccc(Cl)cc3c2C)cc1N1CCN(C)CC1` showed a logD in series [9] of 2.99.

With `CN1CCN(c2ccc3c(c2)C(=O)CCN3S(=O)(=O)c2ccc3ccccc3c2)CC1`, the IC50 in [1] amounted to 311 nM.

Turning to `Cc1cc(N2CCN(C)CC2)c2c(c1)N(S(=O)(=O)c1ccc3ccccc3c1)C(C)CC2=O` (stereo not given), the IC50 in [1] is 11 nM; in series [2], 1230 nM; in series [3], 704 nM; in series [4], 19 nM; in [5] it was above 10000 nM; in [6], 1780 nM. The IC50 in series [7] was 180 nM; in series [8], above 10000 nM.

Turning to `CCC1CC(=O)c2c(N3CCN(C)CC3)cccc2N1S(=O)(=O)c1ccc2ccccc2c1` (stereo not given), the IC50 in series [1] is 9 nM; in series [2], 999 nM; in series [3] it was 455 nM; in [4], 4 nM; in series [5], above 10000 nM; in series [6] it was above 1000 nM. The IC50 in series [7] was 623 nM; in [8] it was above 10000 nM.

In turn, `C[C@@H]1CC(=O)c2c(N3CCN(C)CC3)cccc2N1S(=O)(=O)c1ccc2ccccc2c1` yielded an IC50 in [1] of 353 nM.

`C[C@H]1CC(=O)c2ccc(N3CCN(C)CC3)cc2N1S(=O)(=O)c1ccc2ccccc2c1`: the IC50 in [1] turned out to be 17 nM.
